Results: article PMC10276294, “Regulatory ligand binding in plant chalcone isomerase–like (CHIL) proteins” (The Journal of Biological Chemistry, 2023)
Values joined by “and” are separate entries in the source; they are usually repeats but may differ in a detail not shown here. Equal entries are not always repeated.

Experiments:
[1] = target: Chalcone isomerase-like protein from Vitis vinifera (VvCHIL) (Vitis vinifera); assay: SEC; HiPrep Sephacryl S-200 high-resolution column, 1 ml/min, 200 mM NaCl, 25 mM Tris pH 8.0, 2 mM DTT; His tags removed; masses against Bio-Rad standards
PpCHIL-A [2] = target: T1, PpCHIL-A (Physcomitrium patens, UniProt A9T3E4); assay: Differential scanning fluorimetry (DSF) thermal shift, PpCHIL-A; type: binding, Physcomitrella patens; settings: for difference of apparent Kd relative to NC: PpCHIL-A; for ΔTm: read-out: maximum thermal shift (ΔTmmax)
T1 sequence (A9T3E4 entry or part of it): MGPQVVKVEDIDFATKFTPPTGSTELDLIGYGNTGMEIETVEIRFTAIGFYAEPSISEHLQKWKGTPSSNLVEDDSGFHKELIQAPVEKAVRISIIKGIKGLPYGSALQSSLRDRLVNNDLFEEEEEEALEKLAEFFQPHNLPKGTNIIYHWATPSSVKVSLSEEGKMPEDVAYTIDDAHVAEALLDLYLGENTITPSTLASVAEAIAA
Source text: (§1) Differential scanning fluorimetry (DSF) is a sensitive and label-free method for measuring the Tm of a protein, defined as the temperature at which 50% of a protein sample is unfolded ([21]). Positive Tm changes have been used to measure binding between a CHIL protein and chalcones ([15]). To elucidate a broader scope of CHIL–chalcone interactions, DSF was used to determine the thermal shifts that occur to VvCHIL and PpCHIL-A upon binding naturally occurring chalcones containing different substitution patterns (Fig. 1).
(§2) Assays were performed using SYPRO orange dye (1:625 dilution) and 6 μM CHIL protein against dilution series of (2R/2S)-naringenin (Sigma–Aldrich), NC, 2ʹ,4,4ʹ-trihydroxychalcone (Indofine), 2,2ʹ,4ʹ-trihydroxychalcone (Indofine), and quercetin (Thermo Scientific). Reactions were run in 20 μl reaction volumes and in a buffer containing 150 mM NaCl, 25 mM Tris (pH 8.0), 2 mM DTT, and 2% DMSO. Because of low solubility, 2% DMSO was used for all reactions to enhance ligand solubility. Experiments were performed on a QuantStudio 3 Real-Time PCR and analyzed using Protein ThermalShift software (Thermo Fisher Scientific). Replicates of two to four experiments were conducted for each condition, and GraphPad Prism 9 was used to fit maximum thermal shift (ΔTmmax) and apparent Kd values.

VvCHIL [3] = target: T2, VvCHIL (Vitis vinifera, UniProt F6HC36); assay: Differential scanning fluorimetry (DSF) thermal shift, VvCHIL; type: binding; settings: for ΔTm: read-out: maximum thermal shift (ΔTmmax); for effect on protein thermostability (thermal shift): high ligand concentration
T2 sequence (F6HC36 entry or part of it): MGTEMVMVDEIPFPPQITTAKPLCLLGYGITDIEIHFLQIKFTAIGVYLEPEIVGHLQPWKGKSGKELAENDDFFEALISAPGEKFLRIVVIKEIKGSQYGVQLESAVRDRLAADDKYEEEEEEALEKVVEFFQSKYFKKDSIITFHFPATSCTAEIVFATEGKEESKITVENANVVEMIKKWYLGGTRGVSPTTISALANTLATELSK
Source text: as §1, §2

VvCHIL W221L [4] = target: T3, VvCHIL W221L (Vitis vinifera, UniProt F6HC36, W221L); assay: DSF thermal shift, VvCHIL W221L variant; type: binding
T3 sequence (F6HC36 entry or part of it W221L): as the sequence (F6HC36 entry or part of it) above, with W183L counted along it
Description: as §2

VvCHIL Q141A [5] = target: T4, VvCHIL Q141A (Vitis vinifera, UniProt F6HC36, Q141A); assay: DSF thermal shift, VvCHIL Q141A variant; type: binding
T4 sequence (F6HC36 entry or part of it Q141A): as the sequence (F6HC36 entry or part of it) above, with Q103A counted along it
Description: as §2

PpCHIL-A L188W [6] = target: T5, PpCHIL-A L188W (Physcomitrium patens, UniProt A9T3E4, L188W); assay: DSF thermal shift, PpCHIL-A L188W variant; type: binding, Physcomitrella patens
T5 sequence (A9T3E4 entry or part of it L188W): as the sequence (A9T3E4 entry or part of it) above, with L188W counted along it
Description: as §2

VvCHIL–AtCHS binding = assay: Protein pull-down assay, strep-AtCHS and untagged VvCHIL; parameters: species or system Vitis vinifera / A. thaliana; settings: for effect on VvCHIL–AtCHS binding: increasing ligand concentrations, 2% DMSO
Description: (§3) Protein pull-down assays were conducted using 1 mg of purified strep-tagged AtCHS or PpCHS and 0.3 ml StrepTactin Sepharose resin. The untagged purified VvCHIL or PpCHIL-A proteins was used as […] (0.5 mg). Binding reactions were incubated at room temperature either without ligand and 2% DMSO, or with the reported concentration of ligand and 2% DMSO. The StrepTactin resin was washed 4× with 1 ml of buffer in order to remove unbound protein prior to elution. Each wash buffer contained the reported concentration of ligand, 2% DMSO, 150 mM NaCl, 50 mM Tris (pH 8.0), and 2 mM DTT. Strep-CHS was eluted from the StrepTactin resin with 0.1 ml elution buffer, which contains 1 mM desthiobiotin, 2% DMSO, 150 mM NaCl, 50 mM Tris (pH 8.0), and 2 mM DTT. The pull-down assays were resolved using 15% acrylamide SDS-PAGE and native PAGE gels and imaged and quantified using Image Lab (Bio-Rad). About 50 mM of DTT was used in the native PAGE loading buffer.

PpCHIL–PpCHS binding = assay: Protein pull-down assay, strep-PpCHS and untagged PpCHIL-A; parameters: species or system P. patens; settings: 4.3 mM ligand
Description: as §3

PpCHS–PpCHIL-A L188W = assay: Protein pull-down assay, strep-PpCHS and PpCHIL-A L188W; type: binding, P. patens; settings: 4.3 mM ligand
Description: as §3

HlCHIL1 = target: HlCHIL1; parameters: method as in PMID 29760092; settings: measured by DSF; ref [15]; cited from earlier work
MsCHI-II = target: T6, MsCHI-II (Medicago sativa, UniProt P28012); assay: Differential scanning fluorimetry (DSF) thermal shift, MsCHI-II; type: binding; settings: pH 8.0, 2% DMSO, read-out: apparent Kd
T6 construct: His8 (thrombin-cleavable) (N, cleaved yes); made in house; host or cells: E. coli BL21 DE3-pRIL
T6 sequence (P28012 1-222): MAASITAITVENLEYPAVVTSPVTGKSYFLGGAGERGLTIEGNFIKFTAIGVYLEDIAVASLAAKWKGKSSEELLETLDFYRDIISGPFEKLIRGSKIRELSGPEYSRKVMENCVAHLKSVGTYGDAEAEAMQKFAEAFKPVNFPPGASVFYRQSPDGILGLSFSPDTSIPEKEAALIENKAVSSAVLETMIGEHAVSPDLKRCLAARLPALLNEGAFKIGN

VvCHIL [7] = target: T2, VvCHIL; assay: Quercetin fluorescence enhancement assay, VvCHIL; type: binding
Description: (§4) Fluorescence enhancement of quercetin (Thermo Scientific) was measured in the presence of VvCHIL and PpCHIL-A. The assays were performed in a buffer containing 25 mM Tris (pH 8.0), 150 mM NaCl, and 2% dimethyl sulfoxide (DMSO), used to solubilize quercetin. Protein concentrations were varied from 4.3 to 2250 μM relative to a constant concentration of quercetin (10 μM). After a binding equilibration period of 10 min at 25 °C, changes to the relative fluorescence intensity of quercetin (excitation 485 nm and emission 545 nm) were measured using a Vector X3 multimode plate reader (PerkinElmer). Background fluorescence from identical samples not containing quercetin was subtracted, and change-in-fluorescence data were fit using GraphPad Prism 9 (GraphPad Sofware, Inc) to a single-site binding equation in order to determine equilibrium dissociation constant (Kd) values.

PpCHIL-A [8] = target: T1, PpCHIL-A; assay: Quercetin fluorescence enhancement assay, PpCHIL-A; type: binding, Physcomitrella patens; settings: fluorescence enhancement of 10 μM quercetin, protein titrated, 25 °C, pH 8.0
Description: as §4

VvCHIL W221L [9] = target: T3, VvCHIL W221L; assay: Quercetin fluorescence enhancement assay, VvCHIL W221L; type: binding
Description: as §4

VvCHIL W221L [10] = assay: as above; type: binding, Vitis vinifera; settings: VvCHIL W221L, fluorescence
Description: as §4

VvCHIL Q141A [11] = target: T4, VvCHIL Q141A; assay: Quercetin fluorescence enhancement assay, VvCHIL Q141A; type: binding
Description: as §4

PpCHIL-A L188W [12] = target: T5, PpCHIL-A L188W; assay: Quercetin fluorescence enhancement assay, PpCHIL-A L188W; type: binding, Physcomitrella patens
Description: as §4

[13] = DSF, 6 μM protein, pH 8.0, 2% DMSO
[14] = DSF, single-site fit, 6 μM protein, pH 8.0, 2% DMSO, read-out: apparent Kd
[15] = fluorescence enhancement of quercetin

fold difference of apparent Kd relative to NC (NC smaller) (VvCHIL [3]; VvCHIL, DSF)	Compound	Kd (PpCHIL-A [2]) [µM]	difference of apparent Kd relative to NC (PpCHIL-A [2]; DSF)	ΔTm (PpCHIL-A [2]; [13]) [°C]	Kd (PpCHIL-A [2]; [14]) [µM]	ΔTm (VvCHIL [3]; [13]) [°C]	Kd (VvCHIL [3]; [14]) [µM]	Kd (PpCHIL-A L188W [6]) [µM]	increase of apparent binding affinity over wildtype PpCHIL-A (PpCHIL-A L188W [6]; PpCHIL-A L188W, DSF)	effect on VvCHIL–AtCHS binding (VvCHIL–AtCHS binding)	PpCHIL-A in the strep-PpCHS–bound fraction (PpCHIL–PpCHS binding)	pull-down of PpCHIL-A L188W by PpCHS (PpCHS–PpCHIL-A L188W)	effect on protein thermostability (thermal shift) (VvCHIL [3]; VvCHIL, DSF)	also measured
	Chalcone isomerase-like protein from Vitis vinifera (VvCHIL) (natural protein)													stoichiometry N [1]: 3
approximately 5 fold	O=C(/C=C/c1ccc(O)cc1)c1ccc(O)cc1O [2ʹ,4,4ʹ-trihydroxychalcone]	41 ± 10	does not bind with an appreciable difference											Kd (VvCHIL [3]): 127 ± 51 µM
	O=C(/C=C/c1ccc(O)cc1)c1c(O)cc(O)cc1O [NC, 2ʹ,4,4ʹ,6ʹ-tetrahydroxychalcone]			1.7 ± 0.2	58 ± 16	3.5 ± 0.2	24 ± 5	18 ± 6	approximately threefold	enhances binding	strongly enriched	enhanced		Kd (VvCHIL W221L [4]): 17 ± 4 µM; Kd (VvCHIL Q141A [5]): 16 ± 2 µM; Kd (HlCHIL1): 43 µM; ΔTmmax (HlCHIL1): 6.4 °C
~11 fold	O=C(/C=C/c1ccccc1O)c1ccc(O)cc1O [2,2ʹ,4ʹ-trihydroxychalcone]		twofold greater	2.7 ± 0.2	85 ± 23	3.3 ± 0.7	286 ± 23							
	O=C1C[C@@H](c2ccc(O)cc2)Oc2cc(O)cc(O)c21 [naringenin]	762 ± 39						180 ± 81	approximately fourfold	increasingly disrupted	observed in the bound fractions	similarly in the presence and absence of naringenin	reduced protein Tms at high naringenin concentrations	Kd (MsCHI-II): 1020 µM and 1050 µM; thermal destabilization by ligand (VvCHIL W221L [4]; VvCHIL W221L, DSF): does not undergo thermal destabilization; thermal destabilization by ligand (VvCHIL Q141A [5]; VvCHIL Q141A, DSF): does not undergo thermal destabilization; reduction of thermal stabilization relative to wildtype PpCHIL-A (PpCHIL-A L188W [6]; PpCHIL-A L188W, DSF): approximately 2 °C; VvCHIL band in the strep-AtCHS–bound fraction (VvCHIL–AtCHS binding; 4.30 mM ligand): below the threshold of detection
	O=c1c(O)c(-c2ccc(O)c(O)c2)oc2cc(O)cc(O)c12 [quercetin]												destabilizes	ligand concentration that induces a negative thermal shift (VvCHIL [3]; VvCHIL, DSF): above 750 μM; fraction of VvCHIL bound (VvCHIL [7]; 750 μM quercetin, based on the Kd value for VvCHIL): 0.68; Kd (VvCHIL [7]; fluorescence enhancement of 10 μM quercetin, protein titrated, 25 °C, pH 8.0): 347 ± 35 µM; Kd (PpCHIL-A [8]): 240 ± 121 µM; Kd (VvCHIL W221L [9]): 612 ± 167 µM; reduction of binding relative to wildtype VvCHIL (VvCHIL W221L [10]): approximately twofold; change of binding relative to wildtype VvCHIL (VvCHIL Q141A [11]; fluorescence): not significantly altered; Kd (VvCHIL Q141A [11]; [15]): 403 ± 59 µM; reduction of binding affinity relative to wildtype PpCHIL-A (PpCHIL-A L188W [12]; fluorescence): approximately twofold; Kd (PpCHIL-A L188W [12]; [15]): 582 ± 282 µM
